Test results taken from patent publication US6562584B1, “Bacterial strains for the production of 2-keto-L-gulonic acid” (priority 1998, dated 2003).

Test system: strains NRRL B-30035, NRRL B-30037N, and NRRL B-30036
Assay: Antibiotic resistance by minimum inhibitory concentration (MIC), commercial "Pasco" system
Assay type: cell-based
Conditions: strains NRRL B-30035 (ADM 291-19), NRRL B-30037N (ADM 62A-12A), NRRL B-30036 (ADM 266-13B), based on physiologically attainable concentrations of antibiotic
Text: (6) Antibiotic resistance—sensitive to amikacin, augmentin (amoxicillin plus clavulonic acid), ampicillin, cefazolin, cefoxitin, ceftazidime, ceftiofur, cephalothin, enrofloxacin, florfenicol, gentamicin, imipenem, kanamycin, sarafloxicin, tetracycline, ticarcillin, and tilmicosin, but resistant to tribrissen ([…] plus sulfamethozole), as determined by minimum inhibitory concentration (MIC), based on physiologically attainable concentrations of antibiotic, employing the commercial “Pasco” system; and […]
For NCC[C@H](O)C(=O)N[C@@H]1C[C@H](N)[C@@H](O[C@H]2O[C@H](CN)[C@@H](O)[C@H](O)[C@H]2O)[C@H](O)[C@H]1O[C@H]1O[C@H](CO)[C@@H](O)[C@H](N)[C@H]1O [amikacin], the “Antibiotic resistance (sensitive / resistant) as determined by minimum inhibitory concentration (MIC)” value was “sensitive”.
In the case of CC1(C)S[C@@H]2[C@H](NC(=O)[C@H](N)c3ccccc3)C(=O)N2[C@H]1C(=O)O [ampicillin], the “Antibiotic resistance (sensitive / resistant) as determined by minimum inhibitory concentration (MIC)” value is reported as “sensitive”.
In the case of Cc1nnc(SCC2=C(C(=O)O)N3C(=O)[C@@H](NC(=O)Cn4cnnn4)[C@H]3SC2)s1 [cefazolin], the “Antibiotic resistance (sensitive / resistant) as determined by minimum inhibitory concentration (MIC)” value is reported as “sensitive”.
With CO[C@@]1(NC(=O)Cc2cccs2)C(=O)N2C(C(=O)O)=C(COC(N)=O)CS[C@@H]21 [cefoxitin] the “Antibiotic resistance (sensitive / resistant) as determined by minimum inhibitory concentration (MIC)” value was “sensitive”.
With CC(C)(O/N=C(\C(=O)N[C@@H]1C(=O)N2C(C(=O)[O-])=C(C[n+]3ccccc3)CS[C@H]12)c1csc(N)n1)C(=O)O [ceftazidime] the “Antibiotic resistance (sensitive / resistant) as determined by minimum inhibitory concentration (MIC)” value was “sensitive”.
In the case of CO/N=C(\C(=O)N[C@@H]1C(=O)N2C(C(=O)O)=C(CSC(=O)c3ccco3)CS[C@H]12)c1csc(N)n1 [ceftiofur], the “Antibiotic resistance (sensitive / resistant) as determined by minimum inhibitory concentration (MIC)” value is reported as “sensitive”.
In the case of CC(=O)OCC1=C(C(=O)O)N2C(=O)[C@@H](NC(=O)Cc3cccs3)[C@H]2SC1 [cephalothin], the “Antibiotic resistance (sensitive / resistant) as determined by minimum inhibitory concentration (MIC)” value is reported as “sensitive”.
With CCN1CCN(c2cc3c(cc2F)c(=O)c(C(=O)O)cn3C2CC2)CC1 [enrofloxacin] the “Antibiotic resistance (sensitive / resistant) as determined by minimum inhibitory concentration (MIC)” value was “sensitive”.
For CS(=O)(=O)c1ccc([C@@H](O)[C@@H](CF)NC(=O)C(Cl)Cl)cc1 [florfenicol], the “Antibiotic resistance (sensitive / resistant) as determined by minimum inhibitory concentration (MIC)” value was “sensitive”.
For O=C(O)c1cn(-c2ccc(F)cc2)c2cc(N3CCNCC3)c(F)cc2c1=O [sarafloxicin], the “Antibiotic resistance (sensitive / resistant) as determined by minimum inhibitory concentration (MIC)” value was “sensitive”.
For CC1(C)S[C@@H]2[C@H](NC(=O)[C@H](C(=O)O)c3ccsc3)C(=O)N2[C@H]1C(=O)O [ticarcillin], the “Antibiotic resistance (sensitive / resistant) as determined by minimum inhibitory concentration (MIC)” value was “sensitive”.
With CC[C@H]1OC(=O)C[C@@H](O)[C@H](C)[C@@H](O[C@@H]2O[C@H](C)[C@@H](O)[C@H](N(C)C)[C@H]2O)[C@@H](CCN2C[C@H](C)C[C@H](C)C2)C[C@@H](C)C(=O)/C=C/C(C)=C/[C@@H]1CO[C@@H]1O[C@H](C)[C@@H](O)[C@@H](OC)[C@H]1OC [tilmicosin] the “Antibiotic resistance (sensitive / resistant) as determined by minimum inhibitory concentration (MIC)” value was “sensitive”.
For gentamicin, the “Antibiotic resistance (sensitive / resistant) as determined by minimum inhibitory concentration (MIC)” value was “sensitive”.

Test system: mouse astrogial cells
Assay: not given
Conditions: Bishop et al., Nutrition Reviews 56:287-293 (1998); cited from earlier work
In the case of O=C(O)c1cc(C(=O)O)c2c(n1)C(=O)C(=O)c1cc(C(=O)O)[nH]c1-2 [PQQ, 2,7,9-tricarboxy-1H-pyrrolo[2,3-f]quino-line-4,5-dione], the “nerve growth factor synthesis” value is listed as “increases”.
